{"source": "patent US6995140B1", "about": "“Peptides and polypeptides useful for regenerating the nervous system” (NUCLEICA, priority 1997, dated 2006)", "key": {"[1]": {"test_system": "cortical neuronal cells", "test": "Dissociated cell cultures of cerebral hemispheres of 8-day old chicken embryos (cortical neurons)", "type": "cell-based", "conditions": "for overall effect on cortical neuron cultures (aggregation, adhesion, neuritic growth): in comparison with peptide SEQ ID NO: 8; for adherent cells carrying neurites relative to controls (controls 24.4%): 4 days of culture", "procedure": "Dissociated Cell Cultures of Cerebral Hemispheres of 8-Day Old Chicken Embryos\nThe neuronal cultures are obtained from 8-day old chicken embryos. The cerebral hemispheres, after removing the meninges, are cut into small pieces and enzymatically dissociated with 0.25% of trypsin in a PBS saline buffer free of calcium and of magnesium for 15 minutes at 37° C.\nThe cells are centrifuged at 200 g for 5 minutes in DMEM medium with 20% FCS for the trypsin inactivation. The cells are then filtered on nylon membrane (pore size: 48 microns) and collected in a chemically defined medium free of serum containing a 1/1 mixture of DMEM and Ham's F12 medium supplemented with glutamine (4 mM), glucose (33 mM), penicillin G (50 U/ml), streptomycin sulfate (50 μg/ml) and an N2 supplement of Bottenstein and Sato (1979): putrescine (100 μM), sodium selenite (30 nM), human transferrin (50 μg/ml), progesterone (20 nM), insulin (5 μg/ml) and β-estradiol (1 pM). All the N2 supplements were bought from Sigma.\nThe cells are plated at a density of 7.5×10^4 cells/cm^2 on 24-well plastic plates. For some experiments, the plastic plates are coated either with fibronectin (24 μg/ml) or with thrombospondin (20 μg/ml). The cultures are incubated at 37° C. and under air containing 10% CO2. The medium is not changed during the experiment. These cultures consist of nearly 95% of neurons.\nMoreover, the effect of the peptides according to the present invention SEQ ID NO: 8 and NO: 11 on cultures at low density was studied."}, "[2]": {"test_system": "spinal cord neurons", "test": "Cell cultures of spinal neurons", "type": "cell-based, chicken", "conditions": "compared with controls", "procedure": "Cell Cultures of Spinal Neurons\nThe spinal cords of 6-day old chicken embryos are dissected, freed of their meningeal membrane and cut into small pieces in a phosphate buffer (PBS) free of calcium and of magnesium. After incubation with 0.25% trypsin for 10 minutes at 37° C., the tissue is centrifuged at 200 g for 4 minutes in a growth medium containing 20% fetal calf serum in order to stop the trypsinization. The cells are then dissociated by repeated trituration using a Pasteur pipette and resuspended in a chemically defined medium free of serum as above.\nThe cells are plated at a density of 7.5×10^4 cells/cm^2 on 24-well plastic culture plates. The cultures are incubated at 37° C. and under air containing 10% CO2. The medium is not changed during the experiments and it has already been shown that this type of cell population contained more than 93% of neurons."}, "[3]": {"test_system": "NIB104 neuroblastoma cells", "test": "Culture of cells derived from the NIB104 neuroblastoma", "type": "cell-based", "procedure": "The cells derived from the NIB104 neuroblastoma were cultured in 24-well plastic plates previously coated with a film of poly-L-lysine, under conditions similar to those for the primary cultures."}, "[4]": {"test": "Solubility of the peptide", "type": "physicochemical", "conditions": "basic aqueous medium"}, "[5]": {"conditions": "low density culture, morphometric analysis"}, "[6]": {"conditions": "morphometric analysis, plastic, versus control"}, "[7]": {"conditions": "plates coated with thrombospondin and fibronectin, compared with the controls"}}, "note": "Where no end group is shown, it is not given here.", "data": [{"substance": "R-K-A-R- (RKAR) [peptide SEQ ID NO: 13, peptide for comparison, reference compound]", "values": [{"measurement": "overall effect on cortical neuron cultures (aggregation, adhesion, neuritic growth)", "setting": "[1]", "value": "no representative result"}]}, {"substance": "W-G-P-C-S-V-S-C-G- (WGPCSVSCG) [peptide SEQ ID NO: 11, second peptide according to the invention]", "values": [{"measurement": "overall effect on cortical neuron cultures (aggregation, adhesion, neuritic growth)", "setting": "[1]", "value": "lower but, nevertheless, significant results"}, {"measurement": "adherent cells carrying neurites relative to controls (controls 24.4%)", "setting": "[1]; low density culture", "value": 2.5, "unit": "times"}, {"measurement": "number of neurites per cell", "setting": "[1]; [5]", "value": "not"}]}, {"substance": "WSGWSSCSRSCG (cysteine pairing not given here) [peptide SEQ ID NO: 8]", "values": [{"measurement": "morphology of the neuronal culture", "setting": "[1]; after 5 days of culture, plastic substrate coated with the peptide", "value": "aggregate and are essentially connected by bundles of long and thick neurites"}, {"measurement": "increase in the number of neuronal aggregates", "setting": "[1]; between control culture and culture treated with the peptide", "value": 9.3, "unit": "%"}, {"measurement": "adherent cells carrying neurites relative to controls (controls 24.4%)", "setting": "[1]; low density culture", "value": 2, "unit": "times"}, {"measurement": "length of the neurites", "setting": "[1]; [5]", "value": "significant increase"}, {"measurement": "number of neurites per cell", "setting": "[1]; [5]", "value": "significant increase"}, {"measurement": "length of the neurites per aggregate", "setting": "[1]; [6]", "value": "significant increase"}, {"measurement": "number of neurites per aggregate", "setting": "[1]; [6]", "value": "significant increase"}, {"measurement": "length of the neurites per aggregate", "setting": "[1]; [7]", "value": "significantly increased"}, {"measurement": "number of neurites per aggregate", "setting": "[1]; [7]", "value": "significantly increased"}, {"measurement": "adhesion of the cells to the substrate", "setting": "[1]; substrate coated with the peptide, 5 days of culture, versus control without peptide", "value": "adhere well to the substrate"}, {"measurement": "neuritic growth and fasciculation of the neurites", "setting": "[2]", "value": "prominent neuritic growths forming a network without fasciculation of the neurites"}, {"measurement": "number of synaptic contacts between the neurites", "setting": "[2]", "value": "increase in the number of synaptic contacts"}, {"measurement": "distribution (aggregation) of the neurons", "setting": "[2]; in vitro", "value": "remain distributed for at least one week"}, {"measurement": "appearance (phenotype) of the cells", "setting": "[3]; in the presence of the peptide", "value": "acquire a characteristic neuronal phenotype"}, {"measurement": "neuritic growth", "setting": "[3]; increasing concentrations of peptide in the culture medium, morphometric analysis", "value": "gradually increases"}, {"measurement": "number of NIB104 neuroblastoma cells", "setting": "[3]; versus control cultures", "value": "considerably less numerous"}, {"measurement": "solubility", "setting": "[4]", "value": "soluble in basic aqueous medium"}]}]}
